Marks after values point to notes of the source that are not given here. Strand notation (5' to 3'): a small letter for the sugar, then the base; units joined by * are phosphorothioate-linked, units joined directly phosphodiester-linked; [ ] holds rarer units or linkages, { } end groups; capitals alone tell only the bases. e = 2'-O-(2-methoxyethyl) (MOE); k = constrained ethyl (cEt); [5mC] = 5-methylcytosine; d = 2'-deoxy (DNA)
How the values were obtained:
[1] = system: human APOE RNA; assay: Activity in APOE C57BL/6NTac-Apoeem7250 knock-in mice, single ICV bolus, 20 weeks (Example 13); type: in vivo; conditions: single ICV bolus 300 μg, 20 weeks post treatment, normalized to mouse Ppia
Experimental: Modified oligonucleotides described above were tested in the APOE C57BL/6NTac-Apoeem7250 knock-in mouse model described above.
APOE C57BL/6NTac-Apoeem7250 knock-in mice were divided into groups of 4 mice each. Each mouse received a single ICV bolus of 300 μg of modified oligonucleotide. A group of 2-4 mice received a single ICV bolus with PBS as a negative control.
Twenty weeks post treatment, mice were sacrificed and RNA was extracted from cortical brain tissue and spinal cord for quantitative real-time RT-PCR analysis of RNA expression of APOE using human primer probe set RTS3073 (described herein above). APOE RNA levels were normalized to mouse Ppia. Mouse Ppia was amplified using primer probe set m_cyclo24 (described herein above). Results are presented as percent human APOE RNA relative to the amount of human APOE RNA in PBS treated animals, (% control). Each experiment is identified in separate tables below.

[2] = system: human APOE RNA; assay: Dose-dependent inhibition of human APOE RNA in HepG2 cells, electroporation, 50,000 cells per well, RT-PCR normalized to GAPDH (Example 4, Tables 8-10); type: cell-based; conditions: HepG2, electroporation, 16-hour treatment
Method in brief: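 HepG2 cells, 50,000 per well, electroporated with modified oligonucleotide at various concentrations. APOE RNA quantified by RT-PCR with human primer probe set RTS3073, normalized to GAPDH. Values are percent APOE RNA relative to untreated control cells.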

| Substance | APOE RNA (% control) Cortex [1] | APOE RNA (% control) Spinal Cord [1] | APOE RNA (% UTC) ([2]; 5 nM) | APOE RNA (% UTC) ([2]; 13 nM) | APOE RNA (% UTC) ([2]; 33 nM) | APOE RNA (% UTC) ([2]; 82 nM) | APOE RNA (% UTC) ([2]; 205 nM) | APOE RNA (% UTC) ([2]; 512 nM) | APOE RNA (% UTC) ([2]; 1,280 nM) | APOE RNA (% UTC) ([2]; 3,200 nM) | APOE RNA (% UTC) ([2]; 8,000 nM) | APOE RNA (% UTC) ([2]; 20,000 nM) | IC50 [2] [nM] |
| --- | --- | --- | --- | --- | --- | --- | --- | --- | --- | --- | --- | --- | --- |
| 1757585 (eT*eTeGkGkT*dG*dA*dA*dT*d[5mC]*dT*dT*dT*dA*dT*kTeAeA*eA*e[5mC]; antisense) [Compound 1757585] | 62 % control | 61 % control | 45 | 49 | 44 | 38 | 33 | 53 | 19 | 32 | 12 | 1 | 10 |
| 1757563: mixed MOE/cEt gapmer TTGGTGAATCTTTATTAA, sugar eeeekddddddddkekee, linkages soossssssssssooss (eT*eTeGeG*kT*dG*dA*dA*dT*d[5mC]*dT*dT*dT*kAeTkT*eA*eA) [compound 1757563] | 93 % control | 71 % control | 95 | 103 | 84 | 94 | 76 | 67 | 54 | 41 | 17 | 8 | 1380 |
| 1757564: mixed MOE/cEt gapmer TTGGTGAATCTTTATTAA, sugar eeeekddddddddkeeke, linkages soossssssssssooss (eT*eTeGeG*kT*dG*dA*dA*dT*d[5mC]*dT*dT*dT*kAeTeT*kA*eA) [compound 1757564] | 95 % control | 69 % control | 91 | 86 | 92 | 93 | 82 | 72 | 62 | 39 | 22 | 33 | 2210 |
| 1757567 (eA*e[5mC]eTeTeG*dG*dT*dG*dA*dA*dT*d[5mC]*dT*dT*dT*kAeTeT*eA*eA; antisense) [Compound 1757567] | 80 % control | 65 % control | 103 | 108 | 97 | 91 | 95 | 64 | 59 | 37 | 19 | 23 | 1820 |
| 1757568 (eA*e[5mC]eTeTeG*dG*dT*dG*dA*dA*dT*d[5mC]*dT*dT*dT*kAkTeT*eA*eA; antisense) [Compound 1757568] | 73 % control | 58 % control | 86 | 87 | 104 | 96 | 93 | 63 | 47 | 31 | 21 | 19 | 1390 |
| 1757565 (eA*e[5mC]eTeTkG*dG*dT*dG*dA*dA*dT*d[5mC]*dT*dT*dT*eAeTeT*eA*eA; antisense) [Compound 1757565] | 82‡ % control | 73‡ % control | 95 | 108 | 76 | 84 | 89 | 64 | 49 | 30 | 55 | 22 | 2130 |
| 1757556: mixed MOE/cEt gapmer TTGGTGAATCTTTATTAA, sugar eeeeeddddddddekkee, linkages soossssssssssooss (eT*eTeGeG*eT*dG*dA*dA*dT*d[5mC]*dT*dT*dT*eAkTkT*eA*eA) [compound 1757556] | 99 % control | 82 % control | 92 | 93 | 98 | 103 | 101 | 65 | 71 | 60 | 35 | 13 | 3530 |

From patent publication US20250353873A1, “COMPOUNDS AND METHODS FOR MODULATING APOE EXPRESSION” (Ionis Pharmaceuticals, Inc., priority 2024, published 2025)
